Molecular target: Motilin receptor (Homo sapiens, UniProt O43193)
Assay: SUPPLEMENTARY: Agonist activity at human recombinant motilin receptor expressed in CHO cells by calcium mobilization-based FLIPR assay. Same assay as CHEMBL942680
Format: functional, cell-based

Sequence of Motilin receptor (O43193 whole entry): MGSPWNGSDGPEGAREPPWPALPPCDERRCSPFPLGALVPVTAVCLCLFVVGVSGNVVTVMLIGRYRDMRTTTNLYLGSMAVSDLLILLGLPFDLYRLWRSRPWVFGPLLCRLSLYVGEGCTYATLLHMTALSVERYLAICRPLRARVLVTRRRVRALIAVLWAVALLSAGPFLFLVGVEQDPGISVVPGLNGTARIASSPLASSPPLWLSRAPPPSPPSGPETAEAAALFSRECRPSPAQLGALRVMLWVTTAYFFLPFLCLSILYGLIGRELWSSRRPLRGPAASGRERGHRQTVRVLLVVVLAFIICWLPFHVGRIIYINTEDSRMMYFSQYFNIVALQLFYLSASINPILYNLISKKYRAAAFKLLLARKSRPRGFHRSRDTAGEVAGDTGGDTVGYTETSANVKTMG

## C[C@H]1CN(Cc2ccc(CC(=O)N3CCC(Nc4cccc(F)c4)CC3)cc2Cl)CCN1
  EC50: 5.01 nM

## CC(C)N(C(=O)c1ccc(-c2cccc(F)c2)nc1)c1ccc(CN2CCN[C@@H](C)C2)cc1
  EC50: 12.6 nM

## C[C@H]1CN(Cc2ccc(N(C)C(=O)c3ccc(Oc4ccc(F)cc4)nc3)cc2Cl)CCN1
  EC50: 0.316 nM

## C[C@H]1CN(Cc2ccc(N(C)C(=O)c3ccc(Oc4ccc(F)cc4)nc3)nc2)CCN1
  EC50: 31.6 nM

## C[C@H]1CN(Cc2ccc(N(C)C(=O)c3ccc(-c4cccc(F)c4)nc3)cc2F)CCN1
  EC50: 1.26 nM

## Cc1cc(NS(=O)(=O)c2cncc(-c3ccc(F)cc3)c2)ccc1CN1CCN[C@@H](C)C1
  EC50: 20 nM

## C[C@H]1CN(Cc2ccc(-c3cccnc3C(=O)N3CCC(Nc4ccc(F)cc4)CC3)cc2)CCN1
  EC50: 1 nM

## C[C@H]1CN(Cc2ccc(N(C)C(=O)c3ccc(Oc4ccccc4F)nc3)cc2)CCN1
  EC50: 7.94 nM

## C[C@H]1CN(Cc2ccc(N(C)C(=O)c3ccc(N4CCC(F)CC4)nc3)cc2)CCN1
  EC50: 79.4 nM

## C[C@H]1CN(Cc2ccc(NS(=O)(=O)c3ccc(N4CCCCC4)nc3)cc2)CCN1
  EC50: 100 nM

## C[C@H]1CN(Cc2ccc(N(C)C(=O)c3ccc(Oc4ccccc4F)cc3)cc2)CCN1
  EC50: 5.01 nM

## Cc1cc(N(C)C(=O)c2ccc(Oc3ccc(F)cc3)nc2)ccc1CN1CCN[C@@H](C)C1
  EC50: 0.251 nM

## C[C@H]1CN(Cc2ccn(-c3cccnc3N3CCC(Oc4cccc(F)c4)CC3)n2)CCN1
  EC50: 0.794 nM

## CCN(C(=O)c1ccc(-c2cccc(F)c2)nc1)c1ccc(CN2CCN[C@@H](C)C2)cc1
  EC50: 0.794 nM

## C[C@H]1CN(Cc2ccc(CC(=O)N3CCC(Nc4ccc(C(F)(F)F)cc4)CC3)cc2)CCN1
  EC50: 10 nM

## C[C@@H]1CN(Cc2ccc(CCC(=O)N3CCC(Nc4cccc(F)c4)CC3)cc2)C[C@H](C)N1
  EC50: 39.8 nM

## Cc1nc(-c2ccc(F)cc2)ccc1C(=O)N(C)c1ccc(CN2C[C@@H](C)N[C@@H](C)C2)cc1
  EC50: 0.398 nM

## Cc1nc(-c2ccc(F)cc2)ncc1C(=O)N(C)c1ccc(CN2CCN[C@@H](C)C2)cc1
  EC50: 1.58 nM

## C[C@H]1CN(Cc2ccc(CC(=O)N3CCC(Nc4ccc(C#N)cc4)CC3)cc2)CCN1
  EC50: 31.6 nM

## Cc1cc(N(C)C(=O)c2ccc(Oc3ccc(F)cc3)nc2)ncc1CN1CCN[C@@H](C)C1
  EC50: 2 nM

## C[C@@H]1CN(Cc2ccc(NS(=O)(=O)c3ccc(-c4ccc(F)cc4)nc3)cc2)C[C@H](C)N1
  EC50: 158 nM

## C[C@@H]1CN(Cc2ccc(CC(=O)N3CCC(Nc4ccc(F)c(F)c4)CC3)cc2)CCN1
  EC50: 12.6 nM

## C[C@H]1CN(Cc2ccc(N(C)C(=O)c3ccc(Oc4ccc(F)cc4)nc3)c(F)c2)CCN1
  EC50: 3.16 nM

## C[C@H]1CN(Cc2ccc(N(C)C(=O)c3ccc(-c4cccc(C#N)c4)nc3)cc2)CCN1
  EC50: 7.94 nM

## C[C@@H]1CN(Cc2ccc(N(C)C(=O)c3ccc(-c4ccc(F)cc4)nc3)cc2)C[C@H](C)N1
  EC50: 2 nM

## C[C@H]1CN(Cc2ccc(N(C)C(=O)C3CCN(Cc4ccc(C#N)cc4)CC3)cc2)CCN1
  EC50: 63.1 nM

## C[C@@H]1CN(Cc2ccc(C(C)(C)C(=O)N3CCC(Nc4cccc(F)c4)CC3)cc2)C[C@H](C)N1
  EC50: 25.1 nM

## CC(C(=O)N1CCC(Nc2cccc(F)c2)CC1)c1ccc(CN2C[C@@H](C)N[C@@H](C)C2)cc1 (stereo partly specified)
  EC50: 15.8 nM

## COc1cccc(-c2ccc(C(=O)N(C)c3ccc(CN4CCN[C@@H](C)C4)cc3)nc2)c1
  EC50: 7.94 nM

## C[C@@H]1CN(Cc2ccc(CC(=O)N3CCC(Nc4cccc(C#N)c4)CC3)cc2)CCN1
  EC50: 3.16 nM

## C[C@@H]1CN(Cc2ccn(-c3cccnc3N3CCC(Nc4ccc(F)cc4)CC3)n2)C[C@H](C)N1
  EC50: 2 nM

## C[C@H]1CN(Cc2ccc(N(C)C(=O)c3ccc(-c4ccc(F)cc4)nc3)cc2)CCN1
  EC50: 1.58 nM

## C[C@H]1CN(Cc2ccc(N(C)C(=O)c3ccc(-c4cccc(F)c4)cn3)cc2)CCN1
  EC50: 7.94 nM

## C[C@H]1CN(Cc2ccc(N(C)C(=O)c3ccc(Oc4cccc(F)c4)cn3)cc2)CCN1
  EC50: 1 nM

## C[C@H]1CN(Cc2ccc(CC(=O)N3CCC(Nc4ccc(F)c(F)c4)CC3)cc2)CCN1
  EC50: 7.94 nM

## COCCN(C(=O)c1ccc(Oc2ccc(F)cc2)nc1)c1ccc(CN2CCN[C@@H](C)C2)cc1
  EC50: 15.8 nM

## Cc1cc(N(C)C(=O)c2ccc(-c3cccc(F)c3)nc2)ccc1CN1CCN[C@@H](C)C1
  EC50: 0.251 nM

## C[C@H]1CN(Cc2ccc(N(C)C(=O)c3ccc(-c4ccc(F)cc4)cc3)cc2)CCN1
  EC50: 39.8 nM

## C[C@@H]1CN(Cc2ccc(CC(=O)N3CCC(Nc4cccc(C(F)(F)F)c4)CC3)cc2)CCN1
  EC50: 2.51 nM

## COc1cc(CC(=O)N2CCC(Nc3cccc(F)c3)CC2)ccc1CN1CCN[C@@H](C)C1
  EC50: 25.1 nM

## C[C@H]1CN(Cc2ccc(N(C)C(=O)c3cnc(-c4ccc(F)cc4)nc3)cc2)CCN1
  EC50: 5.01 nM

## Cc1cc(NS(=O)(=O)c2ccc(-c3ccc(F)cc3)nc2)ccc1CN1CCN[C@@H](C)C1
  EC50: 1.58 nM

## C[C@@H]1CN(Cc2ccc(CC(=O)N3CCC(Nc4ccc(C#N)cc4)CC3)cc2)CCN1
  EC50: 15.8 nM

## C[C@H]1CN(Cc2ccc(N(C)C(=O)c3ccc(-c4cccc(F)c4)nc3)c(F)c2)CCN1
  EC50: 6.31 nM

## C[C@@H]1CN(Cc2ccc(CC(=O)N3CCC(Oc4ccc(C#N)cc4)CC3)cc2)CCN1
  EC50: 12.6 nM

## C[C@H]1CN(Cc2ccc(N(C)C(=O)C3CCN(Cc4ccc(F)cc4)CC3)cc2)CCN1
  EC50: 7.94 nM

## C[C@H]1CN(Cc2ccc(N(C)C(=O)c3ccc(-c4cccc(C#N)c4)cn3)cc2)CCN1
  EC50: 39.8 nM

## C[C@@H]1CN(Cc2ccc(CC(=O)N3CCC(Oc4cccc(F)c4)CC3)cc2)CCN1
  EC50: 15.8 nM

## C[C@@H]1CN(Cc2ccc(CC(=O)N3CCC(Oc4ccc(F)cc4)CC3)cc2)CCN1
  EC50: 12.6 nM

## C[C@H]1CN(Cc2ccc(N(C)C(=O)c3ccc(C(=O)c4ccc(C(F)(F)F)cc4)cc3)cc2)CCN1
  EC50: 20 nM

## C[C@H]1CN(Cc2ccc(CC(=O)N3CCC(Nc4cccc(C(F)(F)F)c4)CC3)cc2)CCN1
  EC50: 6.31 nM

## C[C@H]1CN(Cc2ccc(N(C)C(=O)C3CCN(Cc4cccc(F)c4)CC3)cc2)CCN1
  EC50: 5.01 nM

## CCN(C(=O)c1ccc(Oc2ccc(F)cc2)nc1)c1ccc(CN2CCN[C@@H](C)C2)cc1
  EC50: 0.398 nM

## C[C@H]1CN(Cc2ccc(N(C)C(=O)c3ccc(Oc4cccc(C#N)c4)cn3)cc2)CCN1
  EC50: 2 nM

## C[C@H]1CN(Cc2ccc(NS(=O)(=O)c3ccc(-c4ccc(F)cc4)nc3)cc2C(F)(F)F)CCN1
  EC50: 1.58 nM

## C[C@@H]1CN(Cc2ccn(-c3cccnc3N3CCC(Oc4ccc(F)cc4)CC3)n2)C[C@H](C)N1
  EC50: 1.26 nM

## C[C@H]1CN(Cc2ccc(N(C)C(=O)c3ccc(-c4ccc(F)cc4)cn3)cc2)CCN1
  EC50: 7.94 nM

## C[C@@H]1CN(Cc2ccn(-c3cccnc3N3CCC(Oc4cccc(F)c4)CC3)n2)C[C@H](C)N1
  EC50: 2.51 nM

## C[C@H]1CN(Cc2ccc(N(C)C(=O)c3ccc(-c4cccc(F)c4)nc3)cc2)CCN1
  EC50: 1.26 nM

## Cc1nc(-c2cccc(F)c2)ccc1C(=O)N(C)c1ccc(CN2CCN[C@@H](C)C2)cc1
  EC50: 0.631 nM

## C[C@H]1CN(Cc2ccc(N(C)C(=O)c3ccc(Oc4cccc(C#N)c4)nc3)cc2)CCN1
  EC50: 3.16 nM

## C[C@H]1CN(Cc2ccc(N(C)C(=O)c3ccc(-c4ccccc4F)nc3)cc2)CCN1
  EC50: 5.01 nM

## C[C@@H]1CN(Cc2ccn(-c3cccnc3N3CCC(Oc4ccccc4F)CC3)n2)C[C@H](C)N1
  EC50: 6.31 nM

## C[C@@H]1CN(Cc2ccc(-c3cccnc3S(=O)(=O)N3CCC(Nc4ccccc4F)CC3)cc2F)C[C@H](C)N1
  EC50: 20 nM

## Cc1nc(-c2cccc(C#N)c2)ccc1C(=O)N(C)c1ccc(CN2CCN[C@@H](C)C2)cc1
  EC50: 1.58 nM

## C[C@H]1CN(Cc2ccc(CC(=O)N3CCC(Oc4ccc(F)cc4)CC3)cc2)CCN1
  EC50: 20 nM

## C[C@H]1CN(Cc2ccc(CC(=O)N3CCC(Oc4cccc(F)c4)CC3)cc2)CCN1
  EC50: 25.1 nM

## COCCN(C(=O)c1ccc(-c2cccc(F)c2)nc1)c1ccc(CN2CCN[C@@H](C)C2)cc1
  EC50: 15.8 nM

## C[C@H]1CN(Cc2ccc(N(C)C(=O)c3ccc(Oc4cccc(F)c4)cc3)cc2)CCN1
  EC50: 2.51 nM

## C[C@@H]1CN(Cc2ccc(-c3cccnc3N3CCC(Nc4ccc(F)cc4)CC3)s2)C[C@H](C)N1
  EC50: 25.1 nM

## C[C@H]1CN(Cc2ccc(N(C)C(=O)C3CCN(Cc4cccc(C#N)c4)CC3)cc2)CCN1
  EC50: 39.8 nM

Reference: ChEMBL document CHEMBL2364262, “Structure-activity relationship data for chemical series of agonists of the motilin receptor (Supplementary Bioactivity Data for publication CHEMBL1141008)”
